Measurements taken from patent publication US10702506B2, “Small molecule inhibitors of pendrin ion exchange and pharmaceutical compositions” (THE REGENTS OF THE UNIVERSITY OF CALIFORNIA, priority 2016, dated 2020).

Legend:
[1] = biological target: T1, pendrin (Homo sapiens, UniProt O43511); experiment: BCECF cytoplasmic pH assay of pendrin-mediated Cl−/HCO3− exchange in pendrin-expressing FRT cells; type: cell-based; set-up: expressed in transfected cells
T1 sequence (O43511 1-780): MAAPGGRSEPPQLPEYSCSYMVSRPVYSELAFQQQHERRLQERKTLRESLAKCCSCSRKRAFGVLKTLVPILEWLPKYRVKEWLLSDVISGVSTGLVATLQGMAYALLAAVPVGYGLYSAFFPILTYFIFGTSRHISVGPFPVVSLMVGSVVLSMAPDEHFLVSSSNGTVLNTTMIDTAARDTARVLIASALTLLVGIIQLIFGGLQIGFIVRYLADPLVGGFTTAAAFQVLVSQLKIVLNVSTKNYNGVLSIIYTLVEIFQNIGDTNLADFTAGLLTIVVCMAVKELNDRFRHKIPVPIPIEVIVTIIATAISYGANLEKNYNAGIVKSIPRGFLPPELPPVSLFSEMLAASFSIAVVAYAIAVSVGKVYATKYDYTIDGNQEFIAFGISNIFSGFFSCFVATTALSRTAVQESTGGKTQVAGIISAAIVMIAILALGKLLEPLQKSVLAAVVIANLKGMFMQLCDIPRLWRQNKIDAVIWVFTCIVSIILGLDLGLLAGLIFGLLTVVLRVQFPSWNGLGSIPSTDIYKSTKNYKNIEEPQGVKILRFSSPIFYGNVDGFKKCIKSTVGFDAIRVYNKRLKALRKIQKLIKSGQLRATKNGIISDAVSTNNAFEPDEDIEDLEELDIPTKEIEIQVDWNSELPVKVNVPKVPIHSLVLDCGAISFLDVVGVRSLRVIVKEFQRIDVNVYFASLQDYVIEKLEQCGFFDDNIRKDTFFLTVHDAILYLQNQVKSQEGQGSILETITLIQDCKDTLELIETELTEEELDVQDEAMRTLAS
Experimental: Cytoplasmic pH (pHi) was measured to assay pendrin-mediated Cl^−/HCO3^− exchange in pendrin-expressing FRT cells and primary cell cultures using the pH-sensitive fluorescent probe BCECF. Cells were loaded for 20 min using 10 μM BCECF-AM (Invitrogen, Carlsbad, Calif.) in HCO3^−-containing buffer (in mM: 120 NaCl, 5 KCl, 1 CaCl2), 1 MgSO4, 10 glucose, 5 Hepes, 25 NaHCO3; pH 7.4) at 27° C. in a tissue culture incubator. Cells were washed and transferred to the stage of a TE2000 microscope (Nikon, Melville, N.Y.) equipped with a C9100 EM-CCD (Hamamatsu, San Jose, Calif.), XCite light source (Excelitas, Waltham, Mass.), Nikon 20×N.A. 0.75 S Fluor objective, Uniblitz shutter (Vincent Associates, Rochester, N.Y.), and filters for BCECF fluorescence (Chroma, Bellows Fall, Vt.), where they were purged with 95% O2/5% CO2. […] BCECF pH-sensitive fluorescence (490 nm excitation, 535 nm emission) was acquired at 0.5 Hz, with control experiments confirming that BCECF pH-insensitive fluorescence was not altered during exchange protocols. In some experiments pHi changes in the absence of HCO3^− were measured using buffers in which NaCl or Na gluconate replaced NaHCO3^−. To relate BCECF fluorescence to pH, a calibration curve over the quasi-linear range of BCECF sensitivity (pH 6.6-7.7) was generated as described. […]

[2] = biological target: T2, human SLC26A3 (Homo sapiens, UniProt P40879); experiment: SCN− transport YFP quenching assay in SLC26A3-expressing COS7 cells; type: cell-based; details: 25 μM, 30 min; 70 mM SCN− gradient
T2 construct: host or cells: COS7 fibroblasts, transient (Lipofectamine 2000), with EYFP-HIF
T2 sequence (P40879 1-764): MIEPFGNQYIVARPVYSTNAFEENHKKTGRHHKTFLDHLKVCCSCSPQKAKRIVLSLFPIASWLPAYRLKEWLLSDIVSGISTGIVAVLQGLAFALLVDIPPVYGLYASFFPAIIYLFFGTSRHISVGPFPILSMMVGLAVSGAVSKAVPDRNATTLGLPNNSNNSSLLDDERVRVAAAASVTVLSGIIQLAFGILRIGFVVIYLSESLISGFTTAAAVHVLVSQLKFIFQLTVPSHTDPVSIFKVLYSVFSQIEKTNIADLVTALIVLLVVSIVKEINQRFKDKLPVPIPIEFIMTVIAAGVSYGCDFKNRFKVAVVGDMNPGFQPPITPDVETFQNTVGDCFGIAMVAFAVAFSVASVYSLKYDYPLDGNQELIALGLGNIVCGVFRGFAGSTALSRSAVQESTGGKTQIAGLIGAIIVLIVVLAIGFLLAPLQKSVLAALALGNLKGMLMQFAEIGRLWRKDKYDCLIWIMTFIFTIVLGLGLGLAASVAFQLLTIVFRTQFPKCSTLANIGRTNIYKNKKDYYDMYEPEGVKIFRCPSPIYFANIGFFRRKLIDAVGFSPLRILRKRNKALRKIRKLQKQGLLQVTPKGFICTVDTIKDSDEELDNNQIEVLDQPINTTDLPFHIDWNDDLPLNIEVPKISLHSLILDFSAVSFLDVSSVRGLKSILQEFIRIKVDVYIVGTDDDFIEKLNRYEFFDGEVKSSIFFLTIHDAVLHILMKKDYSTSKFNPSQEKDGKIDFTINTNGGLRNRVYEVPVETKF
Experimental: SLC26A3 activity was measured using a SCN^− transport assay that produced YFP fluorescence quenching (FIG. 4B).
SLC26A3-mediated ion transport was measured in COS7 fibroblasts transiently transfected to express EYFP-HIF and human SLC26A3 (Origene, Rockville, Md.). COS7 cells were cultured in DMEM-H21 supplemented with 10% FBS, 2 mM glutamine, 100 U/ml penicillin and […] streptomycin and transfected using Lipofectamine 2000 (Invitrogen, Carlsbad, Calif.). SLC26A3-mediated transport was measured from EYFP-HIF fluorescence after addition of a NaSCN-substituted PBS solution to generate a 70 mM SCN^− gradient. Control experiments were done using COS-7 cells expressing EYFP-HIF alone.

inhibition of cytoplasmic alkalinization (Cl−/HCO3− exchange) ([1]; 25 μM): strongly inhibited | IC50 ([1]; Cl−/HCO3− exchange, read-out: concentration giving fifty percent inhibition of Cl−/HCO3− exchange): ~2500 nM | inhibition of SLC26A3 SCN− transport (YFP quenching) [2]: not significantly inhibited
SMILES: Cn1nc(COc2cccc(F)c2)c2c1CCN(C(=O)Nc1ccc(Cl)cc1)C2 [PDSinh-A01]
